Common to all, as to format: in vivo
Test [1] deals with Plutella xylostella. Description: Plutella xylostella leaf dip method (cabbage leaves). The conditions noted are these: foliar, second instar larvae, 72 h after release, dead and moribund combined, compared to untreated control, read-out: Percent mortality. How it is done:
The leaf dip method was used for testing, wherein the required quantity of the compounds were weighed and dissolved in a surfactant solution, kept on a Vortex at 2000 rpm with zirconia beads for 90 min for proper mixing and then diluted with 0.01% Triton-X solution to the desired test concentration. Cabbage leaves were dipped in the solution for 10 seconds, shade dried for 20 min and then transferred to bioassay trays. A single second instar larva was released into each bioassay tray cell and the tray was covered with a lid. The bio-assay trays were kept under laboratory conditions at a temperature of 25° C. and relative humidity of 70%. Observations on dead, moribund and living larvae were recorded at 72 h after the release. Percent mortality was calculated by combining dead and moribund larvae and comparing the result to the one of the untreated control.

Test [2] concerns Myzus persicae. Description: Myzus persicae leaf dip method (capsicum leaves). As to conditions: foliar, third instar nymphs, 72 h after release, dead and moribund combined, compared to untreated control, read-out: Percent mortality. The protocol:
The leaf dip method was used for testing, wherein the required quantity of the test compounds were weighed and dissolved in a surfactant solution, kept on a Vortex at 2000 rpm with zirconia beads for 90 min for proper mixing and then diluted with 0.01% Triton-X solution to the desired test concentration. Capsicum leaves were dipped in the solution for 10 seconds, shade dried for 20 min and then the leaves were kept in glass units with the petiole dipped in water. Known numbers of third instar nymphs were released into the glass units and then kept in the plant growth chambers at a temperature of 25° C. and relative humidity of 70%. Observations on dead, moribund and living nymphs were recorded at 72 h after the release. Percent mortality was calculated by combining dead and moribund nymphs and comparing the result to the one of the untreated control. The compounds 9 14 16 22 23 50 71 104 and 131 were showing efficacy higher than 70 percent mortality @ 300 PPM.

The test system of test [3] is Spodoptera litura. As to the kind of experiment: Spodoptera litura diet incorporation method. The conditions noted are these: third instar larvae, 96 h after release, dead and moribund combined, compared to untreated control, read-out: Percent mortality. How it is done:
Diet incorporation method was used, in which the required quantity of test compounds were weighed and dissolved in surfactant solution, kept on vortex for 90 min for proper mixing, then diluted with water to the desired test concentrations. The solutions were incorporated into semi-synthetic diet when the temperature reached approximately 50° C. in the bioassay containers. The diet and solution was stirred thoroughly for properly mixing and was left to cool for 30 min. The solidified diet was cut into equal pieces, and then each piece was transferred into one cell of the bio-assay trays. A single starved third instar larva was released into each of these cells of the bioassay trays and the tray was covered with a lid. The bio-assay trays were kept under laboratory conditions at a temperature of 25° C. and relative humidity of 70%. Observations on dead, moribund and alive larvae were recorded at 96 h after the release of the larvae. Percent mortality was calculated by combining dead and moribund larvae and comparing the result to the one of the untreated control.

In test [4] the test system is Helicoverpa armigera. Description: Helicoverpa armigera diet incorporation method. As to conditions: third instar larvae, 96 h after release, dead and moribund combined, compared to untreated control, read-out: Percent mortality. The protocol:
Diet incorporation method was used, in which the required quantity of test compounds were weighed and dissolved in a surfactant solution, kept on vortex for 90 min for proper mixing, then was diluted with water to the desired test concentrations. The solutions were incorporated into semi-synthetic diet when the temperature reached approximately 50° C. in the bioassay containers. The diet and solution was stirred thoroughly for properly mixing and then left to cool for 30 min. The solidified diet was cut into equal pieces, and then each piece was transferred into one cell of the bio-assay trays. A single third starved instar larva was released into each of these cells of the bioassay trays and each tray was covered with a lid. The bio-assay trays were kept under laboratory conditions at a temperature of 25° C. and relative humidity of 70%. Observations on dead, moribund and alive larvae were recorded at 96 h after the release of the larvae. Percent mortality was calculated by combining dead and moribund larvae and comparing the result to the one of the untreated control.

Test [5] has as its system Bemisia tabaci. Description: Bemisia tabaci leaf dip method (cotton leaves). The conditions noted are these: foliar, freshly emerged adults, 72 h after release, dead and moribund combined, compared to untreated control, read-out: Percent mortality. How it is done:
The leaf dip method was used for testing, wherein the required quantity of the test compounds were weighed and dissolved in surfactant solution, kepton a Vortex at 2000 rpm with zirconia beads for 90 min for proper mixing and then diluted with 0.01% Triton-X solution to the desired test concentration. Cotton leaves were dipped in the solution for 10 seconds, shade dried for 20 min and then the leaves were kept in glass units with the petiole dipped in water. Known numbers of freshly emerged adults were released and kept in the plant growth chamber at a temperature of 25° C. and relative humidity of 70%. Observations on dead, moribund and living adults were recorded at 72 h after the release. Percent mortality was calculated by combining dead and moribund adults and comparing the result to the one of the untreated control.

This note sets out measurements from patent US12384787B2, “Fused heterocyclic compounds and their use as pest control agents” (PI INDUSTRIES LTD., priority 2019, dated 2025).

Where only a bound is given, the exact number is not on record here.

For orientation: mortality means the percentage killed. Consider `CCSc1nn2c(C)cc(C)nc2c1-c1nc2cc(C(F)(F)F)cnc2n1C` [Compound 9, 2-(2-(Ethylthio)-5,7-dimethylpyrazolo[1,5-a]pyrimidin-3-yl)-3-methyl-6-(trifluoromethyl)-3H-imidazo[4,5-b]pyridine], for which the mortality at 300 ppm in test [1] and in test [2] was above 70% each time.
With `CCSc1nn2cccnc2c1-c1nc2cc(C(F)(F)F)cnc2n1C` [Compound 14, 2-(2-(Ethylthio)pyrazolo[1,5-a]pyrimidin-3-yl)-3-methyl-6-(trifluoromethyl)-3H-imidazo[4,5-b]pyridine], the mortality at 300 ppm in test [2] is above 70%.
With `CCS(=O)(=O)c1nn2c(-c3cc(Cl)cc(Cl)c3)ccnc2c1-c1nc2cc(C(F)(F)F)cnc2n1C` [Compound 26, 2-(7-(3,5-Dichlorophenyl)-2-(ethylsulfonyl)pyrazolo[1,5-a]pyrimidin-3-yl)-3-methyl-6-(trifluoromethyl)-3H-imidazo[4,5-b]pyridine], the mortality at 300 ppm in test [3], in test [1] and in test [4] was above 70% in each case.
As for `CCSc1nn2cccnc2c1-c1nc2cc(C(F)(F)F)ncc2n1C` [Compound 22, 2-(2-(Ethylthio)pyrazolo[1,5-a]pyrimidin-3-yl)-3-methyl-6-(trifluoromethyl)-3H-imidazo[4,5-c]pyridine], the mortality at 300 ppm in test [1], in test [2] and in test [5] was above 70% throughout.
On to `CCS(=O)(=O)c1nn2c(-c3ccc(F)cc3)ccnc2c1-c1nc2cc(C(F)(F)F)ncc2n1C` [Compound 21, 2-(2-(Ethylsulfonyl)-7-(4-fluorophenyl)pyrazolo[1,5-a]pyrimidin-3-yl)-3-methyl-6-(trifluoromethyl)-3H-imidazo[4,5-c]pyridine], for which the mortality at 300 ppm in test [3], in test [1] and in test [4] was above 70% each time.
`CCS(=O)(=O)c1nn2c(-c3cc(F)cc(Cl)c3)ccnc2c1-c1nc2cc(C(F)(F)F)cnc2n1C` [Compound 103, 2-(7-(3-Chloro-5-fluorophenyl)-2-(ethylsulfonyl)pyrazolo[1,5-a]pyrimidin-3-yl)-3-methyl-6-(trifluoromethyl)-3H-imidazo[4,5-b]pyridine]: the mortality at 300 ppm in test [3], in test [1] and in test [4] was above 70% each time.
On to `CCS(=O)(=O)c1nn2cc(Cl)cnc2c1-c1nc2cc(C(F)(F)F)cnc2n1C` [Compound 50, 2-(6-Chloro-2-(ethylsulfonyl)pyrazolo[1,5-a]pyrimidin-3-yl)-3-methyl-6-(trifluoromethyl)-3H-imidazo[4,5-b]pyridine], for which the mortality at 300 ppm in test [1] and in test [2] was above 70% in each case.
With `CCS(=O)(=O)c1nn2cc(Br)cnc2c1-c1nc2cc(C(F)(F)F)cnc2n1C` [Compound 71, 2-(6-Bromo-2-(ethylsulfonyl)pyrazolo[1,5-a]pyrimidin-3-yl)-3-methyl-6-(trifluoromethyl)-3H-imidazo[4,5-b]pyridine], the mortality at 300 ppm in test [1] and in test [2] was above 70% each time.
In the case of `CCSc1nn2c(-c3ccc(Cl)c(F)c3)ccnc2c1-c1nc2cc(C(F)(F)F)ncc2n1C` [Compound 119, 2-(7-(4-Chloro-3-fluorophenyl)-2-(ethylthio)pyrazolo[1,5-a]pyrimidin-3-yl)-3-methyl-6-(trifluoromethyl)-3H-imidazo[4,5-c]pyridine], the mortality at 300 ppm in test [1] and in test [5] was above 70% each time.
Turning to `CCS(=O)(=O)c1nn2c(-c3ccc(OC(F)(F)C(F)F)cc3)ccnc2c1-c1nc2cc(C(F)(F)F)cnc2n1C` [Compound 90, 2-(2-(Ethylsulfonyl)-7-(4-(1,1,2,2-tetrafluoroethoxy)phenyl)pyrazolo[1,5-a]pyrimidin-3-yl)-3-methyl-6-(trifluoromethyl)-3H-imidazo[4,5-b]pyridine], the mortality at 300 ppm in test [3], in test [1] and in test [4] was above 70% throughout.
Turning to `CCS(=O)(=O)c1nn2c(-c3cc(F)cc(F)c3)ccnc2c1-c1nc2cc(C(F)(F)F)cnc2n1C` [Compound 101, 2-(7-(3,5-Difluorophenyl)-2-(ethylsulfonyl)pyrazolo[1,5-a]pyrimidin-3-yl)-3-methyl-6-(trifluoromethyl)-3H-imidazo[4,5-b]pyridine], the mortality at 300 ppm in test [3], in test [1] and in test [4] was above 70% each time.
With `CCS(=O)(=O)c1nn2c(-c3ccc(Cl)c(Cl)c3)ccnc2c1-c1nc2cc(C(F)(F)F)cnc2n1C` [Compound 104, 2-(7-(3,4-Dichlorophenyl)-2-(ethylsulfonyl)pyrazolo[1,5-a]pyrimidin-3-yl)-3-methyl-6-(trifluoromethyl)-3H-imidazo[4,5-b]pyridine], the mortality at 300 ppm in test [1], in test [2] and in test [4] was above 70% throughout.
Regarding `CCS(=O)(=O)c1nn2c(C)cc(C)nc2c1-c1nc2cc(S(=O)(=O)C(F)(F)F)ccc2o1` [Compound 15, 2-(2-(Ethylsulfonyl)-5,7-dimethylpyrazolo[1,5-a]pyrimidin-3-yl)-5-((trifluoromethyl)sulfonyl)benzo[d]oxazole], the mortality at 300 ppm in test [3], in test [1] and in test [4] was above 70% in each case.
For the compound `CCS(=O)(=O)c1nn2cccnc2c1-c1nc2cc(C(F)(F)F)ncc2n1C` [Compound 23, 2-(2-(Ethylsulfonyl)pyrazolo[1,5-a]pyrimidin-3-yl)-3-methyl-6-(trifluoromethyl)-3H-imidazo[4,5-c]pyridine], in test [2], the mortality at 300 ppm was above 70%.
Still for that read-out and setting: the figure for `CCS(=O)(=O)c1nn2cccnc2c1-c1nc2cc(C(F)(F)F)cnc2n1C` [Compound 16, 2-(2-(Ethylsulfonyl)pyrazolo[1,5-a]pyrimidin-3-yl)-3-methyl-6-(trifluoromethyl)-3H-imidazo[4,5-b]pyridine] is above 70%.
Regarding `CCS(=O)(=O)c1nn2cc(-c3ccc(OC(F)(F)F)cc3)cnc2c1-c1nc2cc(C(F)(F)F)cnc2n1C` [Compound 83, 2-(2-(Ethylsulfonyl)-6-(4-(trifluoromethoxy)phenyl)pyrazolo[1,5-a]pyrimidin-3-yl)-3-methyl-6-(trifluoromethyl)-3H-imidazo[4,5-b]pyridine], the mortality at 300 ppm in test [3], in test [1] and in test [4] was above 70% throughout.
Turning to `CCSc1nn2c(C)ccnc2c1-c1nc2cc(C(F)(F)F)cnc2n1C` [Compound 131, 2-(2-(Ethylthio)-7-methylpyrazolo[1,5-a]pyrimidin-3-yl)-3-methyl-6-(trifluoromethyl)-3H-imidazo[4,5-b]pyridine], the mortality at 300 ppm in test [1] and in test [2] was above 70% each time.
As to `CCS(=O)(=O)c1nn2c(-c3ccc(Cl)c(F)c3)ccnc2c1-c1nc2cc(C(F)(F)F)cnc2n1C` [Compound 118, 2-(7-(4-Chloro-3-fluorophenyl)-2-(ethylsulfonyl)pyrazolo[1,5-a]pyrimidin-3-yl)-3-methyl-6-(trifluoromethyl)-3H-imidazo[4,5-b]pyridine], the mortality at 300 ppm in test [3], in test [1] and in test [4] was above 70% each time.
